Assay results as given in US20140142106A1, “METHOD FOR TREATING PERITONEAL FIBROSIS” (TAIPEI VETERANS GENERAL HOSPITAL, priority 2012, published 2014).

Columns and labels:
[1] = test system: rat peritoneal mesothelial cells (RPMC); test: TGF-β1-treated rat peritoneal mesothelial cell (RPMC) culture: morphology; type: cell-based; settings: 5 μM, 1 hour pretreatment, then with TGF-β1 for 5 days
Method: The primary culture of rat peritoneal mesothelial cells (RPMC) were isolated from 5-week-old male SD rats. Trypsin-EDTA (Gibco, Grand Island, N.Y., USA) (1.25%; 100 mL/kg) was injected intra-peritoneally and was then aspirated after a 2-hour dwelling. The aspirate was centrifuged for 10 minutes at 1500 rpm, and was washed with phosphate buffered saline, and then cultured in DMEM containing 10% fetal bovine serum, and 1% penicillin/streptomycin/L-glutamine.
(§1) To assess the effects of CB1R antagonist on mesothelial cells, we pretreated the MeT-5A cells and RPMC with 5 μM of AM281 for 1 hour, and followed by simultaneous AM281 and TGF-β1 (R&D systems, Minneapolis, Minn., USA) treatment for 5 days. Various TGF-β1 concentrations (0.1 to 1.0 ng/mL) were used. In the CB2R experiment, AM1241 was used instead to test MeT-5A cells and HPMC.

[2] = test system: MeT-5A human mesothelial cell line; test: TGF-β1-treated MeT-5A mesothelial cells: morphology, immunofluorescent staining; type: cell-based
Method: (§2) The MeT-5A human mesothelial cell line, obtained from the American Type Culture Collection (ATCC, Manassas, Va., USA), was cultured in DMEM (Biological Industries, Israel) containing 15% fetal bovine serum (Thermo Scientific, Waltham, Mass., USA), and 1% penicillin/streptomycin/L-glutamine (Biological Industries, Israel). The primary culture of human peritoneal mesothelial cells (HPMC) were prepared as previously described. All patient materials were processed following the ethics regulations of the Institutional Review Board of Taipei Veterans General Hospital.
as §1
For immunofluorescent studies, we grew mesothelial cells in slide flasks (Lab-Tek II; Nalge Nunc. Naperville, Ill., USA).
Cells were observed using a confocal LASER microscope (Leica, Wetzlar, Germany), and fluorescent intensity was analyzed using an image-processing software (AlphaEaseFC 4.0, Alpha Innotech, Santa Clara, Calif., USA). The cytoplasmic fluorescent intensity of individual cell is defined as integrated density value (IDV) of selected cytoplasmic area; the average fluorescent intensity of an image field is defined as average density value (ADV=total IDV/total cytoplasmic area).

TGF-β1-activated PI3K = test: Western blot of PI3K in MeT-5A cells; type: cell-based, human; settings: p110 catalytic subunit
Method: as §1
Phosphatidyl inositol 3 kinase (PI3K) activity in the MeT-5A cells was assessed by Western blot. Cell lysates were subjected to SDS-PAGE and probed with primary antibodies against the p110 catalytic subunit of PI3K (Upstate Millipore, Billerica, Mass., USA) or β-actin (Amersham Life Science, Buckinghamshire, UK).

[3] = test system: MGO-induced peritoneal fibrosis; test: MGO-induced peritoneal fibrosis in rats, effects of CBR ligands (histology, morphometry); type: in vivo, Sprague-Dawley (SD) rats; settings: 1 mg/kg/day in PDF i.p., n=6; for MGO-induced peritoneal thickening: 3 days pretreatment then 10 days with 6 mM MGO, Masson's trichrome
Method: (§3) All animal experiments were performed following the guidelines of the Institutional Committee for Animal Experimentation of Taipei Veterans General Hospital. Five week-old male Sprague-Dawley (SD) rats were purchased from the Laboratory Animal Center of National Yang-Ming University. Peritoneal dialysis fluid (PDF) was prepared according to Hirahara et al. [10;22], containing 2.5% glucose, 100 mmol/L NaCl, 35 mmol/L sodium lactate, 2 mmol/L CaCl2, and 0.7 mmol/L MgCl2, in a pH of 5.0. To test MGO effects, fifty mL/kg of PDF containing 0, 3, 6, 12 mM MGO (Sigma, St. Louis, Mo., USA) were injected intra-peritoneally for ten consecutive days. Dimethyl sulfoxide (DMSO) (Sigma, St. Louis, Mo., USA) was used as the solvent of MGO. For investigation of the effects of CBR ligands, SD rats were pretreated with PDF containing either a selective CB1R antagonist, AM281 (Alexis Biochemicals, Enzo Life Sciences, Farmingdale, N.Y., USA) (1 mg/kg/day) or a selective CB2R agonist, AM1241 (Sigma, St. Louis, Mo., USA) (1 mg/kg/day) for 3 days followed by continuous treatment of PDF containing respective CBR ligands (AM281 or AM1241) and 6 mM MGO for 10 days. Animals receiving PDF containing DMSO vehicle (without MGO) were used as control (n=6/group). All animals were euthanized at the end of experiments by exsanguinations under general anesthesia.
Certain sections of rat peritoneal tissues were frozen at −80° C. for immunofluorescent analysis, while the remainder were fixed in a neutral formalin solution and then embedded in paraffin for histological analysis. For immunofluorescent staining of CBR, rat brain and spleen were used as the positive control of CB1R and CB2R, respectively. For peritoneal thickness quantification, parietal peritoneum sized 1.0×0.5 cm were sampled from four separate peritoneal sites of each rat, including right ventral, left ventral, right lateral, and left lateral abdomen. For each sampling site, the peritoneal thickness was averaged from 15 evenly measured points. Tissue sections were stained with Masson's trichrome to quantify peritoneal fibrosis. The number of mesothelial cells was determined by morphometric method. The hematoxylin and eosin-stained sections were digitalized using an Aperio ScanScope slide scanner (Aperio, San Diego, Calif., USA) at its highest resolution. The mean mesothelial cells per mm surface of peritoneal membrane were counted from 15 points in each peritoneal tissue section from four separate peritoneal areas per animal. The peritoneal angiogenesis was quantified as described by Patel et al.. […] The mean vessels per mm peritoneal membrane were counted from 15 points in each peritoneal tissue section from four separate peritoneal areas per animal.

[4] = test system: TGF-β1, VEGF, and Snail mRNA in rat peritoneal tissue; test: RT-PCR of rat peritoneal tissue after MGO treatment; type: in vivo, Sprague-Dawley (SD) rats; settings: representative PCR
Method: as §3
(§4) For mRNA expression analysis of peritoneal tissue TGF-β1, VEGF, and Snail, the rat peritoneum was resected and incubated with trypsin at 37° C. for 30 minutes. The mesothelium was then scratched from peritoneal surface and collected for reverse transcription-polymerase chain reaction (RT-PCR). In the mesothelial cell culture, the mRNA expression of CB1R, CB2R, and type I collagen were also assessed by the PCR analysis. Total RNA was extracted with TRIzol (Invitrogen, Carlsbad, Calif., USA). Contaminated genomic DNA was removed with RNAse-free DNAse (Ambion, Austin, Tex., USA) following the manufacturer's protocol. […]

[5] = test system: human peritoneal mesothelial cells (HPMC); test: PCR analysis of type I collagen in TGF-β1-treated HPMC; type: cell-based; settings: low TGF-β1 concentrations (0.01-0.05 ng/mL), differences not statistically significant
Method: as §2, §1
For mRNA expression analysis of peritoneal tissue TGF-β1, VEGF, and Snail, the rat peritoneum was resected and incubated with trypsin at 37° C. for 30 minutes. The mesothelium was then scratched from peritoneal surface and collected for reverse transcription-polymerase chain reaction (RT-PCR). In the mesothelial cell culture, the mRNA expression of CB1R, CB2R, and type I collagen were also assessed by the PCR analysis. […]

rat peritoneum = test: Intra-peritoneal PDF containing MGO in rats (peritoneal injury); type: in vivo, Sprague-Dawley (SD) rats; settings: n=6
Method: All animal experiments were performed following the guidelines of the Institutional Committee for Animal Experimentation of Taipei Veterans General Hospital. Five week-old male Sprague-Dawley (SD) rats were purchased from the Laboratory Animal Center of National Yang-Ming University. Peritoneal dialysis fluid (PDF) was prepared according to Hirahara et al. [10;22], containing 2.5% glucose, 100 mmol/L NaCl, 35 mmol/L sodium lactate, 2 mmol/L CaCl2, and 0.7 mmol/L MgCl2, in a pH of 5.0. To test MGO effects, fifty mL/kg of PDF containing 0, 3, 6, 12 mM MGO (Sigma, St. Louis, Mo., USA) were injected intra-peritoneally for ten consecutive days. Dimethyl sulfoxide (DMSO) (Sigma, St. Louis, Mo., USA) was used as the solvent of MGO. […]
Certain sections of rat peritoneal tissues were frozen at −80° C. for immunofluorescent analysis, while the remainder were fixed in a neutral formalin solution and then embedded in paraffin for histological analysis. […] For peritoneal thickness quantification, parietal peritoneum sized 1.0×0.5 cm were sampled from four separate peritoneal sites of each rat, including right ventral, left ventral, right lateral, and left lateral abdomen. For each sampling site, the peritoneal thickness was averaged from 15 evenly measured points. […] The number of mesothelial cells was determined by morphometric method. […]

[6] = humans, long-term basis; cited from earlier work
[7] = test system: CB1R and CB2R expression in MeT-5A cells; test: PCR assessment of CB1R and CB2R expression after TGF-β1 treatment; type: cell-based, human; settings: exogenous TGF-β1, RT-PCR
Method: as §2
as §4, with “protocol. First-strand cDNA was synthesized from total RNA with Superscript™ first-strand cDNA synthesis system for RT-PCR (Invitrogen, Carlsbad, Calif., USA) using Oligo(dT) as primers. GAPDH was used as control.” for “protocol.”

[8] = in the presence of TGF-β1, immunofluorescent staining

Cc1c(C(=O)NN2CCOCC2)nn(-c2ccc(Cl)cc2Cl)c1-c1ccc(I)cc1 [AM281, N-(morpholin-1-yl)-1-(2,4-dichlorophenyl)-5-(4-iodophenyl)-4-methyl-1H-pyrazole-3-carboxamide]
TGF-β1-induced cell elongation [1]: reduces
TGF-β1-induced cell elongation ([2]; 5 μM, 1 hour pretreatment, then with TGF-β1 for 5 days): reduces
expression of E-cadherin [2, 8]: preserving
expression of cytokeratin 8/18 [2, 8]: preserving
type I collagen synthesis [2, 8]: inhibited
TGF-β1-activated PI3K (TGF-β1-activated PI3K): suppressed
MGO-induced mesothelial cell detachment ([3]; 6 mM MGO 10 days): attenuated
MGO-induced angiogenesis ([3]; 6 mM MGO 10 days, α-SMA staining): attenuated
MGO-induced peritoneal thickening [3]: significantly attenuated
up-regulated Snail after MGO treatment [4]: attenuated
up-regulated TGF-β1 after MGO treatment [4]: attenuated
up-regulated VEGF after MGO treatment [4]: attenuated

CN1CCCCC1Cn1cc(C(=O)c2cc([N+](=O)[O-])ccc2I)c2ccccc21 (stereo not drawn) [AM1241, (2-iodo-5-nitrophenyl)-[1-[(1-methylpiperidin-2-yl)methyl]indol-3-yl]methanone]
MGO-induced peritoneal thickening [3]: significantly attenuated
type I collagen synthesis [5]: tended to suppress

CC(=O)C=O [MGO, methylglyoxal]
peritoneal thickness (rat peritoneum; PDF containing 0, 3, 6, 12 mM MGO i.p. for ten consecutive days): significant increase
surface mesothelial cells (rat peritoneum; higher concentration of MGO (6-12 mM), i.p. ten days): prominent loss

C=C(C)[C@@H]1CCC(C)=C[C@H]1c1c(O)cc(CCCCC)cc1O [cannabidiol]
tolerability on long-term administration [6]: well-tolerated without adverse effects

TGF-β1: exogenous TGF-β1 (R&D systems) used to treat mesothelial cells
CBR levels (CB1R, CB2R mRNA) [7]: no significant effect
